In patent US9629891B2, “Products and methods for aortic abdominal aneurysm” (NATIONWIDE CHILDREN'S HOSPITAL, INC., priority 2011, dated 2017):
“Also recorded” adds a separate entry of the source.

Tests used:
[1] = test system: AngII-induced mouse model of AAA; experiment: Prophylactic Notch inhibition in AngII-induced mouse model of AAA; format: in vivo; details: ApoE−/− mice
Protocol: Mini osmotic pumps (Model 2004; Alzet, Cupertino, Calif.) containing AngII (1000 ng/min/kg) or saline were implanted subcutaneously in the neck region of anesthetized mice following standard protocol [Daugherty et al., J. Clin. Invest., 105:1605-1612 (2000)]. Three independent experiments were performed to determine the effect of Notch1 haploinsufficiency on the formation of AAA. In one of these three experiments the effects of pharmacological inhibition of Notch were tested on AAA formation. Mice (n=3) were injected with a Notch inhibitor, DAPT (10 mg/kg dissolved in 10% ethanol, 90% corn oil), three times a week subcutaneously starting one week before the implantation of osmotic pump and continuing for an additional 28 days until the mice were sacrificed, as explained for FIG. 6. [Loane et al., Nat. Med., 15:377-379 (2009); Lanz et al., J. Pharmacol. Exp. Ther., 305:864-871 (2003); Sjolund et al., J. Clin. Invest., 118:217-228 (2008)].
Two dimensional (B-mode) in vivo ultrasound images were obtained at weekly intervals after the implantation of osmotic pumps using a VisualSonics Vevo2100 imaging system (Ontario, Canada) with a mechanical transducer (MS400). After 28 days, the animals were euthanized and the aortas were dissected and fixed in 10% formalin. Minimum and maximum diameters of each vessel were determined by digitalized measurement (Zeiss AxioImager upright microscope with brightfield).
Histological examination of the abdominal aorta of the AngII and saline treated mutant mice was performed. The abdominal region of the aorta were embedded in paraffin and serial sections ([…]) were obtained. Sections were stained with hematoxylin and eosin (HE), elastin staining (Sigma, St. Louis, Mo.), and terminal deoxynucleotidyl transferasemediated dUTP nick-end labeling (TUNEL) staining (Roche, Indianapolis, Ind.). Statistical comparisons were performed using either Student's t-test or one-way ANOVA followed by the Bonferroni's Multiple Comparison Test. GraphPad PRISM V5.0 (San Diego, Calif.) was used for these comparisons and a P value<0.05 was considered significant. […]

RAW 264.7 [2] = experiment: Inflammatory mediator mRNA expression (qRT-PCR) in unstimulated RAW cells; format: cell-based; details: 10 μM DAPT for 6 days, vs untreated cells
Protocol: (§1) The aorta was isolated from experimental mice at day 28 of AngII infusion and immediately frozen in RNA-later (Ambion, Austin, Tex.). Abdominal aorta of equal length was cut from the abdominal region of ApoE^−/− and Notch1^+/−ApoE^−/− mice and RNA was extracted using RNAqueous kit (Ambion, Austin, Tex.). RAW cells (264.7) were obtained from ATCC (Manassas, Va.) and were cultured following the manufacturer's instructions. Naïve macrophages were collected from the peritoneal cavity of ApoE^−/− or Notch1^+/−ApoE^−/− mice by standard protocol [Hans et al., Cardiovasc. Pathol., 185:1894-902 (2011); Hans et al., Cardiovasc. Res., 78:429-439 (2008); Oumouna-Benachour et al., Circulation, 115:2442-2450 (2007)]. The isolated macrophages were cultured in RPMI containing 10% FCS for 3 days and were then treated with 100 nM LPS or diluent for 3 h in RPMI containing 1% FCS. Following treatment, the macrophages were washed with cold PBS and RNA was extracted using RNAeasy kit (Qiagen, Valencia, Calif.). cDNA was synthesized using SuperScript® VILO™ cDNA Synthesis Kit (Invitrogen, Carlsbad, Calif.) and subjected to qRT-PCR by SYBR Green RT-PCR kit (Applied Biosystems, Foster City Calif.) using Applied Biosystems 7500 Fast Real-Time PCR System (Foster City Calif.). qRT-PCR was performed in triplicate and fold change determined by standardization to 18S rRNA. Results were normalized to the controls. […]

[3] = test system: AngII-induced mouse model of AAA; experiment: Progression of active AAA in AngII-induced mouse model, Example 8; format: in vivo
Protocol: Active aneurysm was introduced in ApoE^−/− mice (n=36) by administering AngII. DAPT (10 mg/kg; 3 times a week) was injected in these mice starting either 3 days (Group II; n=12) or 8 days (Group III; n=12) after AngII infusion. Group I (n=12) received vehicle (10% alcohol in corn oil) only. The time periods were chosen so that a small aortic dilation is established before DAPT is administered.
The increased collagen content in the aorta of ApoE^−/− mice in response to AngII provides stability to the tissue against sudden rupture.

[4] = test system: AngII-induced mouse model of AAA; experiment: Therapeutic Notch inhibition (start day 3 or day 8) in AngII-induced mouse model of AAA, Example 7; format: in vivo; details: ApoE−/− mice
Description: In the study, mice were divided into four groups: • ApoE^−/− mice with AngII plus vehicle for 28 days (n=6); • ApoE^−/− mice with AngII plus DAPT (7 days prior to AngII infusion, n=6); • ApoE^−/− mice with AngII plus DAPT (3 days after AngII infusion, n=9); and • ApoE^−/− mice with AngII plus DAPT (8 days after AngII infusion, n=9).
These time periods were carefully selected to determine the effect of Notch inhibition on the formation of AAA before the onset of disease (−7 days), at day 3 (onset of inflammation) and day 8 (elastin degradation and cellular remodeling).
NOTCH inhibitor (DAPT; 10 mg/kg; […] in corn oil) given at day 3 and day 8 after the AngII infusion reduced the progression of active AAA in the mouse model.

RAW 264.7 [5] = experiment: Inflammatory mediator mRNA expression (qRT-PCR) in LPS-stimulated RAW cells; format: cell-based; details: pre-treatment with 10 μM DAPT, RAW cells with 100 ng/ml LPS for 3 hours, vs non-DAPT treated cells
Protocol: as §1

[6] = AngII infusion 28 days, DAPT 10 mg/kg three times a week from one week before AngII, vs untreated ApoE−/− mice

SMILES: C[C@H](NC(=O)Cc1cc(F)cc(F)c1)C(=O)N[C@H](C(=O)OC(C)(C)C)c1ccccc1 [DAPT, N—[N-(3,5-Difluorophenacetyl)-L-alanyl]-S-phenylglycine t-butyl ester]
- aortic diameter [1, 6]: statistically significant reduction
- incidence of AAA [1, 6]: statistically significant reduction
- histologic analysis of the aorta ([1]; AngII infusion, DAPT 10 mg/kg prophylactic, vs untreated mice): no evidence of abdominal aneurysm; also recorded: normal aortic wall architecture without infiltration of inflammatory cells
- expression of MCP-1, IL-6, TNF-α, CXCL-10, VEGF, iNOS, ICAM-1, and VCAM-1 (RAW 264.7 [2]): Decreased expression; also recorded: significantly decreased
- luminal expansion of the abdominal aorta ([3]; ApoE−/− mice, AngII, DAPT 10 mg/kg 3 times a week from day 3 (Group II) or day 8 (Group III), vs vehicle, echocardiography, p<0.05): significantly reduced
- expression of MMP2 and MMP9 in the aortas ([3]; Group II and Group III vs Group I (vehicle), quantitative real-time PCR and immunohistochemistry): decreased
- monocyte chemotactic protein-1 ([3]; Group III (DAPT from day 8)): not associated with increased monocyte chemotactic protein-1
- newly synthesized tropoelastin and collagen staining ([3]; Group III (DAPT from day 8)): increased expression
- macrophage content (CD-68) ([3]; Group III (DAPT from day 8) vs Group I (vehicle), marginal increase vs Group II): significantly less than Group I
- elastin fragmentation and aortic remodeling ([3]; both groups (DAPT from day 3 or day 8), histology): prevented
- maximal abdominal aortic width at day 28 ([4]; AngII, DAPT treatment started at day 3 and day 8): significantly decreased
- progression of active AAA ([4]; DAPT 10 mg/kg in corn oil given at day 3 and day 8 after AngII infusion): reduced
- expression of MCP-1, IL-6, TNF-α, CXCL-10, VEGF, iNOS, and ICAM-1 (RAW 264.7 [5]): Decreased expression; also recorded: significantly reduced
